Results reported in ChEMBL document CHEMBL1142713, “From 4,5,6,7-tetrahydro-5-methylimidazo[4,5,1-jk](1,4)benzodiazepin-2(1H)-one (TIBO) to etravirine (TMC125): fifteen years of research on non-nucleoside inhibitors of HIV-1 reverse transcriptase” (J Med Chem, 2005).

The molecules below were run on MT4 (assay: Effective concentration of the compound to inhibit […] replication in HIV-infected MT-4 cells). Conditions: Homo sapiens.
Format: functional, cell-based

Row | Compound | EC50 [nM]
1 | Cc1cc(C#N)cc(C)c1Nc1nc(Nc2ccc(C#N)cc2)ncc1Br | 0.4
2 | Cc1cc(C)c(Oc2ncnc(Nc3ccc(C#N)cc3)n2)c(C)c1 | 0.6
3 | N#Cc1ccc(NC(=S)NC(=N)Cc2c(Cl)cccc2Cl)cc1 | 3
4 | O=C1Nc2ccc(Cl)cc2[C@@](C#CC2CC2)(C(F)(F)F)O1 [EFAVIRENZ] | 1
5 | Cc1cc(C#N)cc(C)c1Oc1nc(Nc2ccc(C#N)cc2)ncc1Br | 1
6 | Cc1cc(C#N)cc(C)c1Nc1ncnc(Nc2ccc(C#N)cc2)n1 | 1
7 | Cc1ccnc2c1NC(=O)c1cccnc1N2C1CC1 [NEVIRAPINE] | 32
8 | Cc1cc(C#N)cc(C)c1Oc1ccnc(Nc2ccc(C#N)cc2)n1 | 1
9 | Cc1cc(C)c(Oc2ccnc(Nc3ccc(C#N)cc3)n2)c(C)c1 | 3
10 | Cc1cc(C)c(Nc2ccnc(Nc3ccc(C#N)cc3)n2)c(C)c1 [DAPIVIRINE] | 1
11 | CC(=O)c1ccc(C)cc1NC(C(N)=O)c1c(Cl)cccc1Cl (stereo not drawn) [LOVIRIDE] | 13
12 | Cc1cc(C#N)cc(C)c1Oc1nc(Nc2ccc(C#N)cc2)nc(N)c1Br [ETRAVIRINE] | 1
13 | Cc1cc(C)c(Nc2nc(Nc3ccc(C#N)cc3)ncc2Br)c(C)c1 | 6
14 | CC(C)Nc1cccnc1N1CCN(C(=O)c2cc3cc(NS(C)(=O)=O)ccc3[nH]2)CC1 [DELAVIRDINE] | 63
15 | Cc1cc(C#N)cc(C)c1Nc1ccnc(Nc2ccc(C#N)cc2)n1 | 0.4
16 | N#Cc1ccc(Nc2nc(N)nc(Cc3c(Cl)cccc3Cl)n2)cc1 | 6

Each molecule was assayed on MT4 (assay: Effective concentration of the compound to inhibit HIV-1 mutant K103N+Y181C replication in HIV-infected MT-4 cells). Conditions: not given.
Format: functional, cell-based, Homo sapiens

Row | Compound | EC50 [nM]
17 | Cc1cc(C#N)cc(C)c1Nc1nc(Nc2ccc(C#N)cc2)ncc1Br | 32
18 | Cc1cc(C)c(Oc2ncnc(Nc3ccc(C#N)cc3)n2)c(C)c1 | 130
19 | O=C1Nc2ccc(Cl)cc2[C@@](C#CC2CC2)(C(F)(F)F)O1 [EFAVIRENZ] | 40
20 | Cc1cc(C#N)cc(C)c1Oc1nc(Nc2ccc(C#N)cc2)ncc1Br | 25
21 | Cc1ccnc2c1NC(=O)c1cccnc1N2C1CC1 [NEVIRAPINE] | > 10000
22 | Cc1cc(C#N)cc(C)c1Oc1ccnc(Nc2ccc(C#N)cc2)n1 | 94
23 | Cc1cc(C)c(Oc2ccnc(Nc3ccc(C#N)cc3)n2)c(C)c1 | 1100
24 | Cc1cc(C)c(Nc2ccnc(Nc3ccc(C#N)cc3)n2)c(C)c1 [DAPIVIRINE] | 44
25 | Cc1cc(C#N)cc(C)c1Oc1nc(Nc2ccc(C#N)cc2)nc(N)c1Br [ETRAVIRINE] | 4
26 | Cc1cc(C)c(Nc2nc(Nc3ccc(C#N)cc3)ncc2Br)c(C)c1 | 280
27 | CC(C)Nc1cccnc1N1CCN(C(=O)c2cc3cc(NS(C)(=O)=O)ccc3[nH]2)CC1 [DELAVIRDINE] | > 10000
28 | Cc1cc(C#N)cc(C)c1Nc1ccnc(Nc2ccc(C#N)cc2)n1 | 37

Each molecule was assayed on MT4 (assay: Effective concentration of the compound to inhibit HIV-1 mutant L100I replication in HIV-infected MT-4 cells). Conditions: not given.
Format: functional, cell-based, Homo sapiens

Row | Compound | EC50 [nM]
29 | Cc1cc(C#N)cc(C)c1Nc1nc(Nc2ccc(C#N)cc2)ncc1Br | 7
30 | Cc1cc(C)c(Oc2ncnc(Nc3ccc(C#N)cc3)n2)c(C)c1 | 20
31 | N#Cc1ccc(NC(=S)NC(=N)Cc2c(Cl)cccc2Cl)cc1 | 510
32 | O=C1Nc2ccc(Cl)cc2[C@@](C#CC2CC2)(C(F)(F)F)O1 [EFAVIRENZ] | 40
33 | Cc1cc(C#N)cc(C)c1Oc1nc(Nc2ccc(C#N)cc2)ncc1Br | 7
34 | Cc1cc(C#N)cc(C)c1Nc1ncnc(Nc2ccc(C#N)cc2)n1 | 250
35 | Cc1ccnc2c1NC(=O)c1cccnc1N2C1CC1 [NEVIRAPINE] | 320
36 | Cc1cc(C#N)cc(C)c1Oc1ccnc(Nc2ccc(C#N)cc2)n1 | 73
37 | Cc1cc(C)c(Oc2ccnc(Nc3ccc(C#N)cc3)n2)c(C)c1 | 22
38 | Cc1cc(C)c(Nc2ccnc(Nc3ccc(C#N)cc3)n2)c(C)c1 [DAPIVIRINE] | 18
39 | CC(=O)c1ccc(C)cc1NC(C(N)=O)c1c(Cl)cccc1Cl (stereo not drawn) [LOVIRIDE] | 50
40 | Cc1cc(C#N)cc(C)c1Oc1nc(Nc2ccc(C#N)cc2)nc(N)c1Br [ETRAVIRINE] | 3
41 | Cc1cc(C)c(Nc2nc(Nc3ccc(C#N)cc3)ncc2Br)c(C)c1 | 11
42 | CC(C)Nc1cccnc1N1CCN(C(=O)c2cc3cc(NS(C)(=O)=O)ccc3[nH]2)CC1 [DELAVIRDINE] | 2500
43 | Cc1cc(C#N)cc(C)c1Nc1ccnc(Nc2ccc(C#N)cc2)n1 | 34
44 | N#Cc1ccc(Nc2nc(N)nc(Cc3c(Cl)cccc3Cl)n2)cc1 | 400

These molecules were tested on MT4 (assay: Effective concentration of the compound to inhibit HIV-1 mutant Y181C replication in HIV-infected MT-4 cells). Conditions: not given.
Format: functional, cell-based, Homo sapiens

Row | Compound | EC50 [nM]
45 | Cc1cc(C#N)cc(C)c1Nc1nc(Nc2ccc(C#N)cc2)ncc1Br | 10
46 | Cc1cc(C)c(Oc2ncnc(Nc3ccc(C#N)cc3)n2)c(C)c1 | 20
47 | N#Cc1ccc(NC(=S)NC(=N)Cc2c(Cl)cccc2Cl)cc1 | 510
48 | O=C1Nc2ccc(Cl)cc2[C@@](C#CC2CC2)(C(F)(F)F)O1 [EFAVIRENZ] | 2
49 | Cc1cc(C#N)cc(C)c1Oc1nc(Nc2ccc(C#N)cc2)ncc1Br | 22
50 | Cc1cc(C#N)cc(C)c1Nc1ncnc(Nc2ccc(C#N)cc2)n1 | 50
51 | Cc1ccnc2c1NC(=O)c1cccnc1N2C1CC1 [NEVIRAPINE] | 10000
52 | Cc1cc(C#N)cc(C)c1Oc1ccnc(Nc2ccc(C#N)cc2)n1 | 37
53 | Cc1cc(C)c(Oc2ccnc(Nc3ccc(C#N)cc3)n2)c(C)c1 | 38
54 | Cc1cc(C)c(Nc2ccnc(Nc3ccc(C#N)cc3)n2)c(C)c1 [DAPIVIRINE] | 8
55 | CC(=O)c1ccc(C)cc1NC(C(N)=O)c1c(Cl)cccc1Cl (stereo not drawn) [LOVIRIDE] | 16000
56 | Cc1cc(C#N)cc(C)c1Oc1nc(Nc2ccc(C#N)cc2)nc(N)c1Br [ETRAVIRINE] | 7
57 | Cc1cc(C)c(Nc2nc(Nc3ccc(C#N)cc3)ncc2Br)c(C)c1 | 36
58 | CC(C)Nc1cccnc1N1CCN(C(=O)c2cc3cc(NS(C)(=O)=O)ccc3[nH]2)CC1 [DELAVIRDINE] | 2000
59 | Cc1cc(C#N)cc(C)c1Nc1ccnc(Nc2ccc(C#N)cc2)n1 | 7
60 | N#Cc1ccc(Nc2nc(N)nc(Cc3c(Cl)cccc3Cl)n2)cc1 | 200

The molecules below were run on MT4 (assay: Effective concentration of the compound to inhibit HIV-1 mutant K103N replication in HIV-infected MT-4 cells). Conditions: not given.
Format: functional, cell-based, Homo sapiens

Row | Compound | EC50 [nM]
61 | Cc1cc(C#N)cc(C)c1Nc1nc(Nc2ccc(C#N)cc2)ncc1Br | 0.4
62 | Cc1cc(C)c(Oc2ncnc(Nc3ccc(C#N)cc3)n2)c(C)c1 | 3
63 | N#Cc1ccc(NC(=S)NC(=N)Cc2c(Cl)cccc2Cl)cc1 | 590
64 | O=C1Nc2ccc(Cl)cc2[C@@](C#CC2CC2)(C(F)(F)F)O1 [EFAVIRENZ] | 40
65 | Cc1cc(C#N)cc(C)c1Oc1nc(Nc2ccc(C#N)cc2)ncc1Br | 1
66 | Cc1cc(C#N)cc(C)c1Nc1ncnc(Nc2ccc(C#N)cc2)n1 | 8
67 | Cc1ccnc2c1NC(=O)c1cccnc1N2C1CC1 [NEVIRAPINE] | 6310
68 | Cc1cc(C#N)cc(C)c1Oc1ccnc(Nc2ccc(C#N)cc2)n1 | 3
69 | Cc1cc(C)c(Oc2ccnc(Nc3ccc(C#N)cc3)n2)c(C)c1 | 3
70 | Cc1cc(C)c(Nc2ccnc(Nc3ccc(C#N)cc3)n2)c(C)c1 [DAPIVIRINE] | 4
71 | CC(=O)c1ccc(C)cc1NC(C(N)=O)c1c(Cl)cccc1Cl (stereo not drawn) [LOVIRIDE] | 1300
72 | Cc1cc(C#N)cc(C)c1Oc1nc(Nc2ccc(C#N)cc2)nc(N)c1Br [ETRAVIRINE] | 1
73 | Cc1cc(C)c(Nc2nc(Nc3ccc(C#N)cc3)ncc2Br)c(C)c1 | 7
74 | CC(C)Nc1cccnc1N1CCN(C(=O)c2cc3cc(NS(C)(=O)=O)ccc3[nH]2)CC1 [DELAVIRDINE] | 2500
75 | Cc1cc(C#N)cc(C)c1Nc1ccnc(Nc2ccc(C#N)cc2)n1 | 2
76 | N#Cc1ccc(Nc2nc(N)nc(Cc3c(Cl)cccc3Cl)n2)cc1 | 40

The molecules below were run on MT4 (assay: Effective concentration of the compound to inhibit HIV-1 mutant Y188L replication in HIV-infected MT-4 cells). Conditions: not given.
Format: functional, cell-based, Homo sapiens

Row | Compound | EC50 [nM]
77 | Cc1cc(C#N)cc(C)c1Nc1nc(Nc2ccc(C#N)cc2)ncc1Br | 3
78 | Cc1cc(C)c(Oc2ncnc(Nc3ccc(C#N)cc3)n2)c(C)c1 | 63
79 | N#Cc1ccc(NC(=S)NC(=N)Cc2c(Cl)cccc2Cl)cc1 | 320
80 | O=C1Nc2ccc(Cl)cc2[C@@](C#CC2CC2)(C(F)(F)F)O1 [EFAVIRENZ] | 160
81 | Cc1cc(C#N)cc(C)c1Oc1nc(Nc2ccc(C#N)cc2)ncc1Br | 6
82 | Cc1cc(C#N)cc(C)c1Nc1ncnc(Nc2ccc(C#N)cc2)n1 | 50
83 | Cc1ccnc2c1NC(=O)c1cccnc1N2C1CC1 [NEVIRAPINE] | > 100000
84 | Cc1cc(C#N)cc(C)c1Oc1ccnc(Nc2ccc(C#N)cc2)n1 | 19
85 | Cc1cc(C)c(Oc2ccnc(Nc3ccc(C#N)cc3)n2)c(C)c1 | 55
86 | Cc1cc(C)c(Nc2ccnc(Nc3ccc(C#N)cc3)n2)c(C)c1 [DAPIVIRINE] | 48
87 | CC(=O)c1ccc(C)cc1NC(C(N)=O)c1c(Cl)cccc1Cl (stereo not drawn) [LOVIRIDE] | 50000
88 | Cc1cc(C#N)cc(C)c1Oc1nc(Nc2ccc(C#N)cc2)nc(N)c1Br [ETRAVIRINE] | 5
89 | Cc1cc(C)c(Nc2nc(Nc3ccc(C#N)cc3)ncc2Br)c(C)c1 | 27
90 | CC(C)Nc1cccnc1N1CCN(C(=O)c2cc3cc(NS(C)(=O)=O)ccc3[nH]2)CC1 [DELAVIRDINE] | 1300
91 | Cc1cc(C#N)cc(C)c1Nc1ccnc(Nc2ccc(C#N)cc2)n1 | 8
92 | N#Cc1ccc(Nc2nc(N)nc(Cc3c(Cl)cccc3Cl)n2)cc1 | 320

The molecules below were run on MT4 (assay: Effective concentration of the compound to inhibit HIV-1 mutant L100I+K103N replication in HIV-infected MT-4 cells). Conditions: not given.
Format: functional, cell-based, Homo sapiens

Row | Compound | EC50 [nM]
93 | Cc1cc(C#N)cc(C)c1Nc1nc(Nc2ccc(C#N)cc2)ncc1Br | 37
94 | Cc1cc(C)c(Oc2ncnc(Nc3ccc(C#N)cc3)n2)c(C)c1 | 2500
95 | O=C1Nc2ccc(Cl)cc2[C@@](C#CC2CC2)(C(F)(F)F)O1 [EFAVIRENZ] | > 10000
96 | Cc1cc(C#N)cc(C)c1Oc1nc(Nc2ccc(C#N)cc2)ncc1Br | 49
97 | Cc1cc(C#N)cc(C)c1Nc1ncnc(Nc2ccc(C#N)cc2)n1 | > 10000
98 | Cc1cc(C#N)cc(C)c1Oc1ccnc(Nc2ccc(C#N)cc2)n1 | 800
99 | Cc1cc(C)c(Oc2ccnc(Nc3ccc(C#N)cc3)n2)c(C)c1 | 8200
100 | Cc1cc(C)c(Nc2ccnc(Nc3ccc(C#N)cc3)n2)c(C)c1 [DAPIVIRINE] | > 10000
101 | Cc1cc(C#N)cc(C)c1Oc1nc(Nc2ccc(C#N)cc2)nc(N)c1Br [ETRAVIRINE] | 19
102 | Cc1cc(C)c(Nc2nc(Nc3ccc(C#N)cc3)ncc2Br)c(C)c1 | 350
103 | Cc1cc(C#N)cc(C)c1Nc1ccnc(Nc2ccc(C#N)cc2)n1 | 1100
